Assays:
[1] = molecular target: T1, Suppressor of tumorigenicity 14 protein (Homo sapiens, UniProt Q9Y5Y6); assay: Inhibition of recombinant matriptase (unknown origin) using Boc-Gln-Ala-Arg-7-amido-4-methyl coumarin hydrobromide
T1 sequence (Q9Y5Y6 whole entry): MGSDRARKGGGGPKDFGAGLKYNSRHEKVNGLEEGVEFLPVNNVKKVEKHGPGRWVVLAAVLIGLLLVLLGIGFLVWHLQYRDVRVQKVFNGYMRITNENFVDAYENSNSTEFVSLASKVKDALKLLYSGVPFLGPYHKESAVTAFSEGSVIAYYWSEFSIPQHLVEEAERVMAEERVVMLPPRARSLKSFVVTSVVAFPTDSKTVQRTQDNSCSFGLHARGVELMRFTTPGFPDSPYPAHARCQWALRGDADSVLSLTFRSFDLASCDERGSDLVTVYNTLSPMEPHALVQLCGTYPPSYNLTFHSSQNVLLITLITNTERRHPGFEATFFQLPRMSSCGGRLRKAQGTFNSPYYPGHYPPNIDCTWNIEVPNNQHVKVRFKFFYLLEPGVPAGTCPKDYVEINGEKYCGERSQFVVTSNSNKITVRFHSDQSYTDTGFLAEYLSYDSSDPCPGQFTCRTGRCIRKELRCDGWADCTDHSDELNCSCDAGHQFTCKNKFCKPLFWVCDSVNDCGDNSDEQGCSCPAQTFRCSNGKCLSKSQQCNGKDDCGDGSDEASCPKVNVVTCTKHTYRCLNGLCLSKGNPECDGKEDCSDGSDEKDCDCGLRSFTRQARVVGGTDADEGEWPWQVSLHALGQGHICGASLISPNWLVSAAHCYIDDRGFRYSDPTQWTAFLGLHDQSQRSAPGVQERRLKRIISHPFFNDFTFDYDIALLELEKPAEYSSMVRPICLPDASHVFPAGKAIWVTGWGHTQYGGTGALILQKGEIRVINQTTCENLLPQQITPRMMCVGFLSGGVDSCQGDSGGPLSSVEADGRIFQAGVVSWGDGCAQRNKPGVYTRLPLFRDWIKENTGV

Coagulation factor X = Coagulation factor X (Bos taurus, UniProt P00743); assay: Inhibition of bovine plasma factor 10a using CH3OCO-D-CHA-Gly-Arg-pNA.AcoH substrate
Prothrombin = Prothrombin (Homo sapiens, UniProt P00734); assay: Inhibition of human thrombin using Boc-Gln-Ala-Arg-7-amido-4-methyl coumarin hydrobromide
Trypsin = Trypsin (Homo sapiens, UniProt P07477+P07478+P35030); assay: Inhibition of human pancreas Trypsin using Boc-Gln-Ala-Arg-7-amido-4-methyl coumarin hydrobromide; type: protein assay
Plasminogen = Plasminogen (Homo sapiens, UniProt P00747); assay: Inhibition of human plasmin using pyroGlu-Phe-Lys-pNA.HCl
[2] = Antiinvasion activity in human LNCaP-C42B4 cells assessed as inhibition of FBS-induced cell invaded to lower surface at 10 uM for 3 days by matrigel assay; type: functional; conditions: LNCaP-C42B4, 72 h
[3] = Cytotoxicity against human LNCaP-C42B4 cells assessed as cell survival at 10 uM after 72 hrs by calcein AM assay; type: functional; conditions: LNCaP-C42B4, 72 h, read-out: Activity
PC-3 [4] = assay: Cytotoxicity against human PC3 cells assessed as cell survival at 10 uM after 72 hrs by calcein AM assay; type: functional; conditions: PC-3, 72 h, read-out: Activity
PC-3 [5] = assay: Antiinvasion activity in human PC3 cells assessed as inhibition of FBS-induced cell invaded to lower surface at 10 uM for 3 days by matrigel assay; type: functional; conditions: PC-3, 72 h
DU-145 [6] = assay: Cytotoxicity against human DU145 cells assessed as cell survival at 10 uM after 72 hrs by calcein AM assay; type: functional; conditions: DU-145, 72 h, read-out: Activity
DU-145 [7] = assay: Antiinvasion activity in human DU145 cells assessed as inhibition of FBS-induced cell invaded to lower surface at 10 uM for 3 days by matrigel assay; type: functional; conditions: DU-145, 72 h

Plasminogen, sequence (P00747 97-580 limits assumed): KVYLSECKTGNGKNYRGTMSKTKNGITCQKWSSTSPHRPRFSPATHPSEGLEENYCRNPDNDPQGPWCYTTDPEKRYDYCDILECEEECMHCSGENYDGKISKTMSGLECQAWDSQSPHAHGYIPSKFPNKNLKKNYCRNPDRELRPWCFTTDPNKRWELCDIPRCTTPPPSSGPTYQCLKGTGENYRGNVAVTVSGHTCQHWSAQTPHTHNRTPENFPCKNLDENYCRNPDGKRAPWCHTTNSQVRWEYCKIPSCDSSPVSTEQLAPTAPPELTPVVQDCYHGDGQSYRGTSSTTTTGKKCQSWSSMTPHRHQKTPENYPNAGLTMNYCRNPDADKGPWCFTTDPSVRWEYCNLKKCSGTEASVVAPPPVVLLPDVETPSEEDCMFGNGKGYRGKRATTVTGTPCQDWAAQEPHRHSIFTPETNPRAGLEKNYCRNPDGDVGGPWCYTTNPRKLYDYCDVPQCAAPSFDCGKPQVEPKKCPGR
Plasminogen, sequence (P00747 581-810 limits assumed): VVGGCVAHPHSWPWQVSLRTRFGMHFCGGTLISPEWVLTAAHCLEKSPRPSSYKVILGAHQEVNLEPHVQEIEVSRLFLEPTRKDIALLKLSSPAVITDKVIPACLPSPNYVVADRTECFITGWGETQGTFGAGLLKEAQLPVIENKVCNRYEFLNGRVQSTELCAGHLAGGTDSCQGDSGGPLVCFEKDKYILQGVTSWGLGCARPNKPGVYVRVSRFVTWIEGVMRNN
Coagulation factor X, sequence (P00743 41-180 limits assumed): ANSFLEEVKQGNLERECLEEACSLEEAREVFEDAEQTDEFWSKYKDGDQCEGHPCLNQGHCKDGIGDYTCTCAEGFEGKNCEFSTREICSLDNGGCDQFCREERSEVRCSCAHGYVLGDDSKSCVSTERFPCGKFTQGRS
Coagulation factor X, sequence (P00743 234-492 limits assumed): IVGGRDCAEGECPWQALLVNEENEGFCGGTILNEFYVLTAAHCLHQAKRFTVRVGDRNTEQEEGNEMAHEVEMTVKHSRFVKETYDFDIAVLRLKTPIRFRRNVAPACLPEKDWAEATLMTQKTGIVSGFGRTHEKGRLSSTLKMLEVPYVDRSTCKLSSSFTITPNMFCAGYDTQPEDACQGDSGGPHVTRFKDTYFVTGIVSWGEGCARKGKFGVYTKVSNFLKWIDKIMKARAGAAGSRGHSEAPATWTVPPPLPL

Row | SMILES | Ki [1] | Ki (Coagulation factor X) | Ki (Prothrombin) | Ki (Trypsin) | Ki (Plasminogen) | inhibition at 10 µM [2] | viability at 10 µM [3] | viability at 10 µM (PC-3 [4]) | inhibition at 10 µM (PC-3 [5]) | viability at 10 µM (DU-145 [6]) | inhibition at 10 µM (DU-145 [7])
1 | N=C(N)c1ccc(Oc2ccc(Oc3ccc(C(=N)N)cc3)cc2)cc1 | 200 nM | – | – | – | – | – | – | – | – | – | –
2 | N=C(N)c1ccc(Oc2cc(Oc3ccc(C(=N)N)cc3)cc(C(N)=O)c2)cc1 | 1620 nM | 785 nM | 1060 nM | 640 nM | – | – | – | – | – | – | –
3 | N=C(N)c1ccc(Oc2cc(N)cc(Oc3ccc(C(=N)N)cc3)c2)cc1 | 1060 nM | 851 nM | 2820 nM | 534 nM | – | – | – | – | – | – | –
4 | N=C(N)c1ccc(Oc2cc(Oc3ccc(C(=N)N)cc3)cc(C(=O)NC3CCCCC3)c2)cc1 | 592 nM | 190 nM | 1640 nM | 179 nM | 2390 nM | – | – | – | – | – | –
5 | N=C(N)c1ccc(Oc2cc(Oc3ccc(C(=N)N)cc3)cc(C(=O)NCC3CCCCC3)c2)cc1 | 411 nM | 73 nM | 2410 nM | 571 nM | 2160 nM | – | – | – | – | – | –
6 | CC1CCC(NC(=O)c2cc(Oc3ccc(C(=N)N)cc3)cc(Oc3ccc(C(=N)N)cc3)c2)CC1 (centres undefined) | 770 nM | 282 nM | 744 nM | 253 nM | 3610 nM | – | – | – | – | – | –
7 | N=C(N)c1ccc(Oc2cc(Oc3ccc(C(=N)N)cc3)cc(C(=O)NC3CCC(O)CC3)c2)cc1 (centres undefined) | 301 nM | 538 nM | 1240 nM | – | – | – | – | – | – | – | –
8 | N=C(N)c1ccc(Oc2cc(Oc3ccc(C(=N)N)cc3)cc(C(=O)NC3CCN(CCO)CC3)c2)cc1 | 204 nM | 640 nM | 1780 nM | – | – | – | – | – | – | – | –
9 | N=C(N)c1ccc(Oc2cc(Oc3ccc(C(=N)N)cc3)cc(C(=O)NC3CCN(CCCN)CC3)c2)cc1 | 141 nM | 415 nM | 1280 nM | 1035 nM | – | – | – | – | – | – | –
10 | N=C(N)c1ccc(Oc2cc(Oc3ccc(C(=N)N)cc3)cc(C(=O)N3CCC(CCN)CC3)c2)cc1 | 94 nM | 1290 nM | 4060 nM | 545 nM | – | 61% | 100% | 93% | 54% | 100% | 62%
11 | N=C(N)c1ccc(Oc2cc(Oc3ccc(C(=N)N)cc3)cc(C(=O)NCC3CCC(O)CC3)c2)cc1 (centres undefined) | 1180 nM | 920 nM | 2850 nM | 1550 nM | – | – | – | – | – | – | –
12 | CCOC(=O)N1CCC(NC(=O)c2cc(Oc3ccc(C(=N)N)cc3)cc(Oc3ccc(C(=N)N)cc3)c2)CC1 | 1850 nM | 1030 nM | – | 471 nM | 2630 nM | – | – | – | – | – | –
13 | N=C(N)c1ccc(Oc2cc(Oc3ccc(C(=N)N)cc3)cc(C(=O)N3CCC(C(=O)O)CC3)c2)cc1 | – | – | – | 718 nM | – | – | – | – | – | – | –
14 | N=C(N)c1ccc(Oc2cc(Oc3ccc(C(=N)N)cc3)cc(C(=O)N3CCC4CCCCC4C3)c2)cc1 (centres undefined) | 305 nM | 336 nM | 501 nM | 232 nM | 1530 nM | 15% | 79% | 87% | 47% | 78% | 45%
15 | N=C(N)c1ccc(Oc2cc(Oc3ccc(C(=N)N)cc3)cc(C(=O)N3CCc4ccccc4C3)c2)cc1 | 730 nM | 273 nM | 1560 nM | 225 nM | 3850 nM | – | – | – | – | – | –
16 | N=C(N)c1ccc(Oc2cc(Oc3ccc(C(=N)N)cc3)cc(C(=O)Nc3ccc(F)cc3)c2)cc1 | 591 nM | 1880 nM | 2100 nM | 1636 nM | 2670 nM | – | – | – | – | – | –
17 | CC1CCC(C(=O)Nc2cc(Oc3ccc(C(=N)N)cc3)cc(Oc3ccc(C(=N)N)cc3)c2)CC1 (centres undefined) | 545 nM | 743 nM | 2340 nM | 516 nM | 1200 nM | – | – | – | – | – | –

From ChEMBL document CHEMBL3286254, “Structure-guided discovery of 1,3,5 tri-substituted benzenes as potent and selective matriptase inhibitors exhibiting in vivo antitumor efficacy” (Bioorg Med Chem, 2014)
